Here are results for 1 compound from patent US20070189973A1, “Contrast medium comprising liposomes containing hydrophobic chelate compound” (priority 2003, published 2007).

The assay concerns vascular smooth muscle cells. The experiment in a line: Uptake amount of chelate compound by vascular smooth muscle cells (mixed culture with macrophages). Type of assay: cell-based. Conditions: liposome preparation PC: 50 nmol+PS: 50 nmol+Compound 1: 75 nmol; mixed culture system of vascular smooth muscle cells and macrophage; 37° C., 5% CO2, 24 hours. As to the method: Uptake Amount of Chelate Compound by Vascular Smooth Muscle Cells
Dipalmitoyl-PC (Funakoshi, No. 1201-41-0225) and dipalmitoyl-PS (Funakoshi, No. 1201-42-0237) at the ratio shown below were dissolved in chloroform together with a hydrophobic chelate compound (Compound 1 specifically shown above as a preferred compound) in an eggplant-shaped flask according to the method described in J. Med. Chem., 25 (12), 1500 (1982) to form a uniform solution. Then, the solvent was evaporated under reduced pressure to form a thin membrane on the bottom of the flask bottom. This thin membrane was dried in vacuum, then added with an appropriate amount of 0.9% physiological saline (Hikari Pharmaceutical, No. 512) and subjected to ultrasonication (No. 3542 probe type oscillator, Branson, 0.1 mW) for 5 minutes to obtain a uniform liposome dispersion. The diameters of the liposomes in the resulting dispersion were measured by using WBC analyzer (A-1042, Nihon Kohden). […] The liposome preparation mentioned below, which was produced by the above method, was added to a mixed culture system of vascular smooth muscle cells and macrophage described in International Publication WO 01/82977. The cells were cultured at 37° C. under 5% CO2 for 24 hours, and the amount of the chelate compound taken up into the vascular smooth muscle cells was quantified.
PC: 50 nmol+PS: 50 nmol+Compound 1: 75 nmol […]

SMILES strings stand for the structures.

For the compound `CC(C)CCCC(C)C1CCC2C3C=CC4CC(OC(=O)COC(=O)CN(CCN(CC(=O)O)CC(=O)O)CCN(CC(=O)O)CC(=O)O)CCC4(C)C3CCC12C` (stereo not shown) [Compound 1], the “Amount taken up by vascular smooth muscle cells” value is recorded as 20 nmol/mg protein.
